Source: ChEMBL document CHEMBL3399978, “Synthesis and optimization of picolinamide derivatives as a novel class of 11β-hydroxysteroid dehydrogenase type 1 (11β-HSD1) inhibitors” (Bioorg Med Chem Lett, 2015)
One block for each compound: values may come before it. The source made the active and inactive calls. No cut-off for these calls is given here.

Legend:
[1] = Metabolic stability in mouse liver microsomes assessed as compound remaining after 30 mins; assay type: ADME; conditions: read-out: Stability
[2] = molecular target: T1, 11-beta-hydroxysteroid dehydrogenase 1 (Homo sapiens, UniProt P28845); assay: Inhibition of human 11beta-HSD1 using microsomal fraction and NADPH assessed as conversion of cortisone to cortisol by biochemical enzyme assay
[3] = molecular target: T1, 11-beta-hydroxysteroid dehydrogenase 1; assay: Inhibition of human 11beta-HSD1 expressed in HEK293 cells using NADPH assessed as conversion of cortisone to cortisol by cell-based assay
[4] = molecular target: 11-beta-hydroxysteroid dehydrogenase 1 (Mus musculus, UniProt P50172); assay: Inhibition of mouse 11beta-HSD1 using microsomal fraction and NADPH assessed as conversion of cortisone to cortisol by biochemical enzyme assay
[5] = molecular target: T2, 11-beta-hydroxysteroid dehydrogenase type 2 (Homo sapiens, UniProt P80365); assay: Inhibition of human 11beta-HSD2 using microsomal fraction and NADPH assessed as conversion of cortisone to cortisol by biochemical enzyme assay
T2 sequence (P80365 whole entry): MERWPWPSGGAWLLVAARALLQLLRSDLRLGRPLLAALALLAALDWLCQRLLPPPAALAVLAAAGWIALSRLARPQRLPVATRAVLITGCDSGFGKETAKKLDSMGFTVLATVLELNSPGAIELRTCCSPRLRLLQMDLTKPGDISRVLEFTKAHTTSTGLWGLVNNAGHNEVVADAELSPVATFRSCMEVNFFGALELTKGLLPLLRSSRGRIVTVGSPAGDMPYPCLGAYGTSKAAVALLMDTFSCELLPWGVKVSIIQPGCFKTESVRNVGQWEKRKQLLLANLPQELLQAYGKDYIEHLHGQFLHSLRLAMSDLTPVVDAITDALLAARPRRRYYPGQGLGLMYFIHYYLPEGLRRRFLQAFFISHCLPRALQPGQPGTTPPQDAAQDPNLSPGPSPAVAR

[6] = Clearance in mouse at 5 mg/kg, iv; assay type: ADME, organism-based; parameters: dose 5 mg/kg, route intravenous; conditions: in vivo
[7] = Oral bioavailability in mouse at 20 mg/kg; assay type: ADME, organism-based; conditions: in vivo
[8] = test system: Mus musculus; assay: Ex vivo inhibition of 11beta-HSD1 in male C57BL/6 mouse liver assessed as conversion of cortisone to cortisol at 30 mg/kg, po after 2 hrs by enzyme immunoassay; assay type: functional; conditions: C57BL/6, Liver
[9] = test system: Mus musculus; assay: Ex vivo inhibition of 11beta-HSD1 in male C57BL/6 mouse liver assessed as conversion of cortisone to cortisol at 30 mg/kg, po after 6 hrs by enzyme immunoassay; assay type: functional; conditions: C57BL/6, Liver
[10] = test system: Mus musculus; assay: Ex vivo inhibition of 11beta-HSD1 in male C57BL/6 mouse epididymal fat assessed as conversion of cortisone to cortisol at 30 mg/kg, po after 2 hrs by enzyme immunoassay; assay type: functional; conditions: C57BL/6, 2 h
[11] = test system: Mus musculus; assay: Ex vivo inhibition of 11beta-HSD1 in male C57BL/6 mouse epididymal fat assessed as conversion of cortisone to cortisol at 30 mg/kg, po after 6 hrs by enzyme immunoassay; assay type: functional; conditions: C57BL/6, 6 h
[12] = test system: Mus musculus; assay: Reduction in non-fasting blood glucose level in ob/ob type 2 diabetic mouse model at 10 mg/kg, po once daily after 10 days relative to vehicle treated control; assay type: functional; conditions: 240 h
[13] = test system: Mus musculus; assay: Reduction in LDL cholesterol level in ob/ob type 2 diabetic mouse model at 10 mg/kg, po once daily after 10 days relative to vehicle treated control; assay type: functional, organism-based; parameters: dose 10 mg/kg
[14] = test system: Mus musculus; assay: Reduction in triglyceride level in ob/ob type 2 diabetic mouse model at 10 mg/kg, po once daily after 10 days relative to vehicle treated control; assay type: functional, organism-based; parameters: dose 10 mg/kg
[15] = test system: Mus musculus; assay: Toxicity in ob/ob type 2 diabetic mouse model assessed as HDL cholesterol at 10 mg/kg, po once daily after 10 days relative to vehicle treated control; assay type: organism-based; parameters: dose 10 mg/kg, route oral; conditions: in vivo, 240 h
[16] = test system: Mus musculus; assay: Toxicity in ob/ob type 2 diabetic mouse model assessed as food intake at 10 mg/kg, po once daily after 10 days relative to vehicle treated control; assay type: organism-based; parameters: dose 10 mg/kg, route oral; conditions: in vivo, 240 h
[17] = test system: Mus musculus; assay: Toxicity in ob/ob type 2 diabetic mouse model assessed as body weight at 10 mg/kg, po once daily after 10 days relative to vehicle treated control; assay type: organism-based; parameters: dose 10 mg/kg, route oral; conditions: in vivo, 240 h

T1 sequence (P28845 whole entry): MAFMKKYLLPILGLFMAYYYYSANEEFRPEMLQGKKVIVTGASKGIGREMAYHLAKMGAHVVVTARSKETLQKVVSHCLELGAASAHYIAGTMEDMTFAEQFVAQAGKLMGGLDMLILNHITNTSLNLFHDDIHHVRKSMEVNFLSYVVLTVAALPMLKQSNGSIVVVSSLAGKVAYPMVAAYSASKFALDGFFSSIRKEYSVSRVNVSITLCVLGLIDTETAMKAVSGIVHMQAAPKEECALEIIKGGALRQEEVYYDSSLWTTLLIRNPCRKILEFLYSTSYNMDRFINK
Sequence of 11-beta-hydroxysteroid dehydrogenase 1 (Mus musculus, UniProt P50172) (P50172 whole entry): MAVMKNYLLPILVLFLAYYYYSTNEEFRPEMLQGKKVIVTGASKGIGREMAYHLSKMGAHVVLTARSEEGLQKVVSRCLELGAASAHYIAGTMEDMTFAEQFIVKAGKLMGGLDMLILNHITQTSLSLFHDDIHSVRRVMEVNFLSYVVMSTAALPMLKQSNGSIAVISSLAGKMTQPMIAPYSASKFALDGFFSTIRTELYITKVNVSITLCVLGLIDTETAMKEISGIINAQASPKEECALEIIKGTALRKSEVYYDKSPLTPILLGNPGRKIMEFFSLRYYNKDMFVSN

remaining at 0.5 h [1]: 61%
Compound: CNC(=O)c1ccc(N2CCN(c3cccc(C(=O)N[C@H]4C5CC6CC4C[C@](O)(C6)C5)n3)[C@H](C)C2)cc1

remaining at 0.5 h [1]: 80%
Compound: COc1ccc(N2CCN(c3cccc(C(=O)N[C@H]4C5CC6CC4C[C@](O)(C6)C5)n3)[C@H](C)C2)cc1

remaining at 0.5 h [1]: 52%
Compound: N#Cc1ccc(N2CCC(c3cccc(C(=O)N[C@H]4C5CC6CC4C[C@](O)(C6)C5)n3)CC2)nc1

remaining at 0.5 h [1]: 46%
Compound: N#Cc1ccc(C2CCN(c3cccc(C(=O)N[C@H]4C5CC6CC4C[C@](O)(C6)C5)n3)CC2)cc1

remaining at 0.5 h [1]: 63%
Compound: N#Cc1ccc(C2CCN(c3cccc(C(=O)N[C@H]4C5CC6CC4C[C@](O)(C6)C5)n3)CC2)nc1

remaining at 0.5 h [1]: 82%
Compound: C[C@H]1CN(c2ccc(C#N)cc2)CCN1c1cccc(C(=O)N[C@H]2C3CC4CC2C[C@](O)(C4)C3)n1

remaining at 0.5 h [1]: 69%
Compound: O=C(N[C@H]1C2CC3CC1C[C@](O)(C3)C2)c1cccc(N2CCN(c3ccc(Cl)cc3)CC2)n1

remaining at 0.5 h [1]: 65%
Compound: NC(=O)c1ccc(N2CCN(c3cccc(C(=O)N[C@H]4C5CC6CC4C[C@](O)(C6)C5)n3)CC2)cc1

remaining at 0.5 h [1]: 97%
Compound: Nc1ccc(N2CCN(c3cccc(C(=O)N[C@H]4C5CC6CC4C[C@](O)(C6)C5)n3)CC2)cc1

IC50 [2]: 2.2 nM
IC50 [3]: 3.1 nM
IC50 [4]: 1.8 nM
IC50 [5]: > 10000 nM
remaining at 0.5 h [1]: 97%
clearance [6]: 14.2 mL/min/kg
bioavailability [7]: 41%
Compound: C[C@@H]1CN(c2ccc(S(C)(=O)=O)cc2)CCN1c1cccc(C(=O)N[C@H]2C3CC4CC2C[C@](O)(C4)C3)n1
inhibition in vivo at 30 mg/kg [8]: 85%
inhibition in vivo at 30 mg/kg [9]: 77%
inhibition in vivo at 30 mg/kg [10]: 95%
inhibition in vivo at 30 mg/kg [11]: 86%
inhibition in vivo at 10 mg/kg [12]: 41%
inhibition [13]: Active
inhibition [14]: Active
Activity [15]: Non-toxic
Activity [16]: Non-toxic
Activity [17]: Non-toxic

remaining at 0.5 h [1]: 77%
Compound: COc1ccc(N2CCN(c3cccc(C(=O)N[C@H]4C5CC6CC4C[C@](O)(C6)C5)n3)[C@@H](C)C2)cc1

IC50 [2]: 4.2 nM
IC50 [3]: 6.8 nM
remaining at 0.5 h [1]: 88%
Compound: C[C@H]1CN(c2ccc(S(C)(=O)=O)cc2)CCN1c1cccc(C(=O)N[C@H]2C3CC4CC2C[C@](O)(C4)C3)n1

remaining at 0.5 h [1]: 74%
Compound: Cc1ccc(N2CCN(c3cccc(C(=O)N[C@H]4C5CC6CC4C[C@](O)(C6)C5)n3)CC2)cc1

IC50 [2]: 1.6 nM
IC50 [3]: 3.9 nM
IC50 [4]: 2.5 nM
IC50 [5]: > 10000 nM
remaining at 0.5 h [1]: 87%
clearance [6]: 29.7 mL/min/kg
bioavailability [7]: 17%
Compound: CS(=O)(=O)c1ccc(N2CCN(c3cccc(C(=O)N[C@H]4C5CC6CC4C[C@](O)(C6)C5)n3)CC2)cc1
inhibition in vivo at 30 mg/kg [8]: 53%
inhibition in vivo at 30 mg/kg [9]: 15%
inhibition in vivo at 30 mg/kg [10]: 70%
inhibition in vivo at 30 mg/kg [11]: 22%

remaining at 0.5 h [1]: 84%
Compound: C[C@@H]1CN(c2ccc(C#N)cc2)CCN1c1cccc(C(=O)N[C@H]2C3CC4CC2C[C@](O)(C4)C3)n1

remaining at 0.5 h [1]: 79%
Compound: N#Cc1ccc(N2CCN(c3cccc(C(=O)N[C@H]4C5CC6CC4C[C@](O)(C6)C5)n3)CC2)cc1F

remaining at 0.5 h [1]: 88%
Compound: N#Cc1ccc(N2CCN(c3cccc(C(=O)N[C@H]4C5CC6CC4C[C@](O)(C6)C5)n3)CC2)c(Cl)c1

remaining at 0.5 h [1]: 58%
Compound: N#Cc1ccc(N2CCC(c3cccc(C(=O)N[C@H]4C5CC6CC4C[C@](O)(C6)C5)n3)CC2)cc1

remaining at 0.5 h [1]: 73%
Compound: O=C(N[C@H]1C2CC3CC1C[C@](O)(C3)C2)c1cccc(N2CCN(c3ccc(F)cc3)CC2)n1

remaining at 0.5 h [1]: 79%
Compound: O=C(N[C@H]1C2CC3CC1C[C@](O)(C3)C2)c1cccc(N2CCN(c3ccc(C(F)(F)F)cc3)CC2)n1

remaining at 0.5 h [1]: 32%
Compound: NC(=O)c1ccc(N2CCN(c3cccc(C(=O)N[C@H]4C5CC6CC4C[C@](O)(C6)C5)n3)CC2)c(Cl)c1

remaining at 0.5 h [1]: 86%
Compound: COc1ccc(N2CCN(c3cccc(C(=O)N[C@H]4C5CC6CC4C[C@](O)(C6)C5)n3)CC2)cc1

bioavailability [7]: 5%
Compound: N#Cc1ccc(N2CCN(c3cccc(C(=O)N[C@H]4C5CC6CC4C[C@](O)(C6)C5)n3)CC2)cc1
inhibition in vivo at 30 mg/kg [9]: < 10%
inhibition in vivo at 30 mg/kg [11]: < 10%

remaining at 0.5 h [1]: 81%
Compound: N#Cc1ccc(N2CCN(c3cccc(C(=O)N[C@H]4C5CC6CC4C[C@](O)(C6)C5)n3)CC2)nc1

remaining at 0.5 h [1]: 57%
Compound: C[C@@H]1CN(c2ccc(C(N)=O)cc2)CCN1c1cccc(C(=O)N[C@H]2C3CC4CC2C[C@](O)(C4)C3)n1

IC50 [2]: 4.1 nM
IC50 [3]: 4.9 nM
IC50 [4]: 6.6 nM
IC50 [5]: > 10000 nM
remaining at 0.5 h [1]: 84%
clearance [6]: 7.67 mL/min/kg
bioavailability [7]: 32%
Compound: C[C@@H]1CN(c2ccc(C(C)(C)O)cc2)CCN1c1cccc(C(=O)N[C@H]2C3CC4CC2C[C@](O)(C4)C3)n1
inhibition in vivo at 30 mg/kg [8]: 73%
inhibition in vivo at 30 mg/kg [9]: 58%
inhibition in vivo at 30 mg/kg [10]: 94%
inhibition in vivo at 30 mg/kg [11]: 77%

remaining at 0.5 h [1]: 28%
Compound: NC(=O)c1ccc(N2CCN(c3cccc(C(=O)N[C@H]4C5CC6CC4C[C@](O)(C6)C5)n3)CC2)cc1F

remaining at 0.5 h [1]: 74%
Compound: O=C(N[C@H]1C2CC3CC1C[C@](O)(C3)C2)c1cccc(N2CCN(c3ccc([N+](=O)[O-])cc3)CC2)n1
